Assay [1] deals with Staphylococcus aureus. As to the kind of experiment: Antibacterial activity against Staphylococcus aureus ATCC 14053 at 100 ug/disk by standard petri-plate assay. The following applies: read-out: IZ. The assay is classed as functional.
Assay [2] relates to Bacillus subtilis. As to the kind of experiment: Antibacterial activity against Bacillus subtilis ATCC 6051 at 100 ug/disk by standard petri-plate assay. The following applies: read-out: IZ. The assay is classed as functional.
Assay [3] concerns Bacillus subtilis. The assay is described as follows: Antibacterial activity against Bacillus subtilis ATCC 6051 at 50 ug/disk by standard petri-plate assay. The assay is classed as functional, organism-based.
Assay [4] concerns Staphylococcus aureus. As to the kind of experiment: Antibacterial activity against Staphylococcus aureus ATCC 14053 at 50 ug/disk by standard petri-plate assay. The class given is functional, organism-based.

For the compound `CC(=O)[C@@]12SS[C@]3(C(=O)N1C)[C@@H](O)[C@]1([C@@]45c6ccccc6N[C@@H]4N4C(=O)[C@]6(C(C)O)SS[C@]4(C(=O)N6C)[C@H]5O)c4ccccc4N[C@@H]1N3C2=O` (stereo partly drawn) [VERTICILLIN F], the zone of inhibition at 100 µg/disc in assay [1] was found to be 11 mm; in assay [2], 23 mm.
Regarding `CC(=O)[C@@]12SS[C@]3(C(=O)N1C)[C@@H](O)[C@]1([C@@]45c6ccccc6N[C@@H]4N4C(=O)[C@]6(C(C)=O)SS[C@]4(C(=O)N6C)[C@H]5O)c4ccccc4N[C@@H]1N3C2=O` [VERTICILLIN E], the zone of inhibition at 100 µg/disc in assay [1] is 11 mm; in assay [2] it was 23 mm.
As for GENTAMICIN SULFATE, the inhibition zone (IZ) in assay [3] and in assay [4] was 25 mm each time.
In the case of `CC(O)[C@@]12SS[C@]3(C(=O)N1C)[C@@H](O)C1([C@@]45c6ccccc6N[C@@H]4N4C(=O)[C@]6(C(C)O)SS[C@]4(C(=O)N6C)[C@H]5O)c4ccccc4N[C@@H]1N3C2=O` (stereo partly drawn) [VERTICILLIN D], the zone of inhibition at 100 µg/disc in assay [1] came to 11 mm; in assay [2], 23 mm.

Values taken from ChEMBL document CHEMBL1141846, “New verticillin and glisoprenin analogues from gliocladium catenulatum, a mycoparasite of aspergillus flavus sclerotia” (1999).
